# Tests used:
# Experiment in all cases: KINOMEscan competition binding
# ABL1-nonphosphorylated = ABL1-nonphosphorylated (Homo sapiens, UniProt P00519); details: read-out: %Inh ABL1-nonphosphorylated
# ADCK4 = target: T1, ADCK4 (Homo sapiens, UniProt Q96D53); details: read-out: %Inh ADCK4
# T1 sequence (Q96D53 1-544): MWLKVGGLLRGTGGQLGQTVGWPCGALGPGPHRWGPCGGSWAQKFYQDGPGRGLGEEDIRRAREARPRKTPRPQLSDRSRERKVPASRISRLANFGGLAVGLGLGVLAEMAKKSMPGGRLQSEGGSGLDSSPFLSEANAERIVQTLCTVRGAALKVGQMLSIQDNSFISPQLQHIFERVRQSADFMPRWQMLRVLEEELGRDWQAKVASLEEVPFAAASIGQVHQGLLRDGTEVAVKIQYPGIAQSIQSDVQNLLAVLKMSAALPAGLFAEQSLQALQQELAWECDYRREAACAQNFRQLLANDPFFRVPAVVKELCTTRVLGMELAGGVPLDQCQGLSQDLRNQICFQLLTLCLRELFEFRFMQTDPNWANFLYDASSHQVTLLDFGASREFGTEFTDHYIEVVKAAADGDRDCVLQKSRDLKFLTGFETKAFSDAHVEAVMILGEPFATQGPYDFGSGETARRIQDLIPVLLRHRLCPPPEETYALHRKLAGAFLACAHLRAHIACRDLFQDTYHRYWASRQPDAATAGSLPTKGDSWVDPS
# CAMK2G = CAMK2G (Homo sapiens, UniProt Q13555); details: read-out: %Inh CAMK2G
# CIT = CIT (Homo sapiens, UniProt O14578); details: read-out: %Inh CIT
# LKB1 = target: T2, LKB1 (Homo sapiens, UniProt Q15831); details: read-out: %Inh LKB1
# T2 sequence (Q15831 1-433): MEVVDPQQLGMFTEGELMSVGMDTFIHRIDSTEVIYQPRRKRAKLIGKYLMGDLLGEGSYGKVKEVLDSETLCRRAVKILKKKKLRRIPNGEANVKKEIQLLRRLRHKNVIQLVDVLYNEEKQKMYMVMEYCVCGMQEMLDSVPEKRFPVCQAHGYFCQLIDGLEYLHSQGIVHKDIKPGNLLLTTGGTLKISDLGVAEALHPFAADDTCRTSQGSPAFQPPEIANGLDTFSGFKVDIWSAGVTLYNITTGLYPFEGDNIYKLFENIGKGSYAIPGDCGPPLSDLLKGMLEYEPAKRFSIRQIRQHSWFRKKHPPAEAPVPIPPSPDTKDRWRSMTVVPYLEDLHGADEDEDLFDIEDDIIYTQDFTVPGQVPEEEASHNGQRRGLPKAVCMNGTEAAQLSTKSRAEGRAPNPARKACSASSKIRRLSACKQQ
# ABL1-nonphosphorylated, sequence (P00519 whole entry): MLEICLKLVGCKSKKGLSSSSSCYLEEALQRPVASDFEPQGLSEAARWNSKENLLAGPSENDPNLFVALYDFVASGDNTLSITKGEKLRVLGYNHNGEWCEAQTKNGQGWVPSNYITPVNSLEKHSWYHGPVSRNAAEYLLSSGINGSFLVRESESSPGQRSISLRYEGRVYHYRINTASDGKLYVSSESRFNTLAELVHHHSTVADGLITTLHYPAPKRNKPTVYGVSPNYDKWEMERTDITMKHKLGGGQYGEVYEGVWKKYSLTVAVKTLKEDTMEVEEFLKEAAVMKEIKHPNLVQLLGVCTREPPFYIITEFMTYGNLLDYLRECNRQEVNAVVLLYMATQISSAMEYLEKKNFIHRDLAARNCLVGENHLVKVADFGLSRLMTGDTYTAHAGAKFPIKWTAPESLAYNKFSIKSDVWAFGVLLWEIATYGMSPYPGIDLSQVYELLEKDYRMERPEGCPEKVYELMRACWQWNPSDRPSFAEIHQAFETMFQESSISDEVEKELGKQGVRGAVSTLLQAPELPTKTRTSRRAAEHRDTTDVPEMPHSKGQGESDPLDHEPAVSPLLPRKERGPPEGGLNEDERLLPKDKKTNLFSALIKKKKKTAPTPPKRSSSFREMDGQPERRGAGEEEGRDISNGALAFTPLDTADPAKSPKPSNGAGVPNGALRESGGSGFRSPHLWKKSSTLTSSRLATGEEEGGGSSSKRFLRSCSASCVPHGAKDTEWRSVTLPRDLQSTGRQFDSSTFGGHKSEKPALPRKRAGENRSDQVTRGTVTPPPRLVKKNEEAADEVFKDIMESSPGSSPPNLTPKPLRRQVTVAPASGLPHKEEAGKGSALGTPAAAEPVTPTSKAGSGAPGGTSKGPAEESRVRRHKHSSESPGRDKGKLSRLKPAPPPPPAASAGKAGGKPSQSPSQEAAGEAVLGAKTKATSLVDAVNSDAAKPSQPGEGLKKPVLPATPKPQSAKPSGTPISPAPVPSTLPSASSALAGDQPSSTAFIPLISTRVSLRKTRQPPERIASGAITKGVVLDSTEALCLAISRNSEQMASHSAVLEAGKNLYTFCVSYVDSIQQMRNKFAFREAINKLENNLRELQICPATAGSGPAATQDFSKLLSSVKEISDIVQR
# CIT, sequence (O14578 whole entry): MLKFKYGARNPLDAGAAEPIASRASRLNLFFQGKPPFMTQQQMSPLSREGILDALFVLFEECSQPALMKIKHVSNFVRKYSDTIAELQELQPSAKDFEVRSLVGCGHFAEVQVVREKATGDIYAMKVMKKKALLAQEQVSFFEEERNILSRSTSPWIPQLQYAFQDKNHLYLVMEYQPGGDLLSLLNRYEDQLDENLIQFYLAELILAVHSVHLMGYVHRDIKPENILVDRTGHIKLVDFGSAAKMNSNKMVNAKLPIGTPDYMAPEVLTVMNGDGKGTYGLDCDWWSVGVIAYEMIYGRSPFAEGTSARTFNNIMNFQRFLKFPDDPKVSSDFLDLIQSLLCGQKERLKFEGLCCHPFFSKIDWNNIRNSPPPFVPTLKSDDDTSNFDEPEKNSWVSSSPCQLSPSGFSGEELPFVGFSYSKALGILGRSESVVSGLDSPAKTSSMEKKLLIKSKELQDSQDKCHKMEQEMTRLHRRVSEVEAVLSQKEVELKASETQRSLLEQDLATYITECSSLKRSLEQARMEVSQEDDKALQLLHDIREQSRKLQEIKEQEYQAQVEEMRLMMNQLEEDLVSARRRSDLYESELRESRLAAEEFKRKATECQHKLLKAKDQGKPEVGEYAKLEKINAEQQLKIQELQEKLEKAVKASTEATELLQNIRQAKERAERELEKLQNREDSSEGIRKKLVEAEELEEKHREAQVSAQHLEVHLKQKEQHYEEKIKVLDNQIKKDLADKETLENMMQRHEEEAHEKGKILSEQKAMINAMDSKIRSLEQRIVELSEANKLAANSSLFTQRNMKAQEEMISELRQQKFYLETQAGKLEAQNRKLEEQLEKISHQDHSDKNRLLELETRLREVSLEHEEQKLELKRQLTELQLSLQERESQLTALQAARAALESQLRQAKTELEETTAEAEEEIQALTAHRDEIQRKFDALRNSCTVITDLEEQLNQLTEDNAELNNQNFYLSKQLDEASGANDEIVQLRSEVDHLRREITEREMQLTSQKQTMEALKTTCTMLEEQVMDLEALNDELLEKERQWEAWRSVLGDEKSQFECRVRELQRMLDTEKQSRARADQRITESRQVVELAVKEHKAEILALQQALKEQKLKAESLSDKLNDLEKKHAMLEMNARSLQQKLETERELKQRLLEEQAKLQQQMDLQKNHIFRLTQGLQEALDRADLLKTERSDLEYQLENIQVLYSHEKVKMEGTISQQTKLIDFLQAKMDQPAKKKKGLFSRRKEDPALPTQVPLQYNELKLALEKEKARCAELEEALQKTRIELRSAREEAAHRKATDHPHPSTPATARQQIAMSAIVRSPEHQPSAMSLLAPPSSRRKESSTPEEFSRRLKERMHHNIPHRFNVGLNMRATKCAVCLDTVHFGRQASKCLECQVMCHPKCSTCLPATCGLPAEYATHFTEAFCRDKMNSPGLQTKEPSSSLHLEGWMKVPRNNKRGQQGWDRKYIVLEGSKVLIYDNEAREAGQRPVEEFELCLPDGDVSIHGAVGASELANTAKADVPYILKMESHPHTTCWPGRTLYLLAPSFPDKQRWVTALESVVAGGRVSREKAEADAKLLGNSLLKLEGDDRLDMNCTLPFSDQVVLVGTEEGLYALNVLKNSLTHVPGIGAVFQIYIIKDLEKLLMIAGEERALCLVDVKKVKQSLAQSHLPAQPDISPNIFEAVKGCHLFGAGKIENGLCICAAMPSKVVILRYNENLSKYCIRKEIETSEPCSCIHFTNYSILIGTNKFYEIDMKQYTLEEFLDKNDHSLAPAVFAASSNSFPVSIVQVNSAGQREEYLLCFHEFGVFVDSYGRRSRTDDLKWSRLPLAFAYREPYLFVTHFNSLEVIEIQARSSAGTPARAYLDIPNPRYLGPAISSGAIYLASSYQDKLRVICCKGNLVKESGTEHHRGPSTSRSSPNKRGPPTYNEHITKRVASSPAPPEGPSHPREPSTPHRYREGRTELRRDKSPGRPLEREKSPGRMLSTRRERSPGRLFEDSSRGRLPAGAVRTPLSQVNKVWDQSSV
# CAMK2G, sequence (Q13555 whole entry): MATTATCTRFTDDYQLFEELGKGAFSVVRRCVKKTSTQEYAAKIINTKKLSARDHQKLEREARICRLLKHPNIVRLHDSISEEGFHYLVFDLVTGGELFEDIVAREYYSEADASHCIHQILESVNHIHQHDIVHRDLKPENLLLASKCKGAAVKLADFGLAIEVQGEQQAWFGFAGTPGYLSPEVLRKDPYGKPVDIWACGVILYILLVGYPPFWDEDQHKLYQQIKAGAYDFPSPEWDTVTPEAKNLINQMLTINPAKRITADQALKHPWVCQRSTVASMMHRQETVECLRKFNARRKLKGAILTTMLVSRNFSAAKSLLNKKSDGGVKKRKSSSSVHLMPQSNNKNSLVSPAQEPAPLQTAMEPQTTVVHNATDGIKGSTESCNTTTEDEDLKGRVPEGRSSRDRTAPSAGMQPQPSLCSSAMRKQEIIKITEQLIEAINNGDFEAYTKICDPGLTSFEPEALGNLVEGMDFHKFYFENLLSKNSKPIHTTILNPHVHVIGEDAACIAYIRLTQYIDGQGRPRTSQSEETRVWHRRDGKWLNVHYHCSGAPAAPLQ
Structure (SMILES),inhibition at 1 µM (ABL1-nonphosphorylated) [%],inhibition at 1 µM (ADCK4) [%],inhibition at 1 µM (CAMK2G) [%],inhibition at 1 µM (CIT) [%],inhibition at 1 µM (LKB1) [%]
COc1cccc(OC)c1C(=O)Nc1cccc(-c2nn3ccccc3c2-c2ccnc(Nc3cccc(F)c3)n2)c1 [UNC10225310A],28,0,0,36,6
Cc1ccc(NC(=O)Nc2cccc(C(F)(F)F)c2)cc1 [UNC10225187A],49,0,4,29,16
O=c1cc(N2CCOCC2)nc2n(Cc3cccc(Cl)c3Cl)c(C3CC3)nn12 [UNC10225469A],28,0,0,0,15
CS(=O)(=O)Cc1ccc(Nc2nccc(-c3c(-c4cccc(NC(=O)C5CCCCC5)c4)nn4ncccc34)n2)cc1 [UNC10225159A],8,0,0,10,0
Cn1cc(-c2cnc(N)c3c(-c4ccc5c(c4)CCN5C(=O)Cc4ccccc4)csc23)cn1 [UNC10225012A],99.7,0,13,0,0
